From publication PMC6278284, “Synthesis of Jacaranone-Derived Nitrogenous Cyclohexadienones and Their Antiproliferative and Antiprotozoal Activities” (Molecules, 2018)
Where “and” joins values, the source holds several entries; their conditions need not be identical. Equal values may be shown once.

Key:
[1] = system: P. falciparum, strain NF54, erythrocytic stages; assay: In vitro growth inhibition assay of Plasmodium falciparum NF54 ([3H]-hypoxanthine incorporation); assay type: cell-based; settings: for IC50: Plasmodium falciparum, strain NF54, erythrocytic stages, read-out: P. falc. IC50; for SI (IC50 in L6 cells/IC50 P. falciparum): ratio IC50 L6 / IC50 P. falciparum NF54
Description: In vitro activity against erythrocytic stages of P. falciparum was determined by a modified [^3H]-hypoxanthine incorporation assay using the drug-sensitive NF54 strain and the standard drug, chloroquine (Sigma C6628). Briefly, parasite cultures incubated in RPMI 1640 medium with 5% AlbuMAX^TM (without hypoxanthine) were exposed to serial drug dilutions in microtiter plates. After 48 h of incubation at 37 °C in a reduced oxygen atmosphere, 0.5 μCi [^3H]-hypoxanthine was added to each well of the plate. Cultures were incubated for a further 24 h before they were harvested onto glass-fiber filters and washed with distilled water. The radioactivity was counted using a Betaplate^TM liquid scintillation counter (Wallac, Zurich). The results were recorded as counts per minute (CPM) per well at each drug concentration and expressed as a percentage of the untreated controls. IC50 values were calculated from the sigmoidal inhibition curves using Microsoft Excel.

CCRF-CEM leukemia cells = assay: XTT viability assay, CCRF-CEM; assay type: cell-based; settings: Homo sapiens, 72 h, read-out: metabolic active cells in % of control
Description: (§1) Human CCRF-CEM leukemia and MDA-MB-231 breast cancer cells lines were kept in RPMI1640 medium (Gibco®, ThermoFisher Scientific Inc., New York, NY, USA), supplemented with 2 mM L-glutamine (Gibco®), 10% heat-inactivated foetal bovine serum (FBS, Gibco®), 100 units/mL Penicillin (PAA), and 100 µg/mL Streptomycin (Gibco®) (1% Pen/Strep). HCT-116 and U251 cells were cultured in high-glucose Dulbecco’s Modified Eagle Medium (DMEM, Gibco®) containing 2 mM L-glutamine, 10% FBS, and 1% Pen/Strep. MRC-5 cells were grown in Minimum Essential Medium (MEM, Gibco®) supplemented with 2 mM L-glutamine, 10% FBS, and 1% Pen/Strep. All cells were kept in a humidified 5% CO2 atmosphere at 37 °C and passaged at 90% confluence.
(§2) A Cell Proliferation Kit II (XTT) was purchased from Sigma-Aldrich and performed as described previously and in accordance with the manufacturer’s protocol. In brief, adherent cell lines were seeded at a density of 50,000 cells/mL or 100,000 cells/mL (MRC-5) in 96 well plates (100 µL, flat bottom) and grown for 24 h before test compounds were added. Suspension cells (CCRF-CEM) were seeded at 100,000 cells/mL and test compounds were added immediately. After 72 h, XTT solution was added for another 90 min or 4 h (CCRF-CEM cells) and absorbance was measured at 490 nm with a reference wave length of 650 nm (Hidex Sense Microplate Reader 425-301, Hidex, Turku, Finland). Results are expressed as a percentage of the vehicle-treated (0.5% DMSO) control cells. Vinblastine served as the positive control (0.01 µg/mL).

[2] = system: HCT-116 colon cancer cells; assay: XTT viability assay, HCT-116; assay type: cell-based; settings: Homo sapiens, 72 h, read-out: metabolic active cells in % of control; for viability at 5 µg/mL: HCT 116, 5 µg/mL; for viability at 50 µg/mL: HCT 116, 50 µg/mL
Description: as §1, §2

U251 glioblastoma cells = assay: XTT viability assay, U251; assay type: cell-based; settings: Homo sapiens, U-251, 72 h, read-out: metabolic active cells in % of control; for viability at 5 µg/mL: U251, 5 µg/mL; for viability at 50 µg/mL: U251, 50 µg/mL
Description: as §1, §2

Compound: O=C1C=CC(O)(CCN2C(=O)C=CC2=O)C=C1 [Compound 13b, N-[2-(1-Hydroxy-4-oxocyclohexa-2,5-dien-1-yl)ethyl]maleimide]
- IC50 [1]: 4.42 µM
- SI (IC50 in L6 cells/IC50 P. falciparum) [1]: 6.1
- viability at 5 µg/mL (CCRF-CEM leukemia cells): -1.08%
- viability at 50 µg/mL (CCRF-CEM leukemia cells): 3.46%
- viability at 5 µg/mL [2]: 0.13%
- viability at 50 µg/mL [2]: -0.32%
- viability at 5 µg/mL (U251 glioblastoma cells): 95.2%
- viability at 50 µg/mL (U251 glioblastoma cells): -0.41%
- melting point: 151 to 152 °C

Compound: O=C1C=CC(O)(CCN2C(=O)c3cccnc3C2=O)C=C1 [Compound 13f, N-[2-(1-Hydroxy-4-oxocyclohexa-2,5-dien-1-yl)ethyl]pyridine-2,3-dicarboximide]
- IC50 [1]: 28 µM
- SI (IC50 in L6 cells/IC50 P. falciparum) [1]: 5.5
- viability at 5 µg/mL (CCRF-CEM leukemia cells): 99.8%
- viability at 50 µg/mL (CCRF-CEM leukemia cells): 21.7%
- viability at 5 µg/mL [2]: 91%
- viability at 50 µg/mL [2]: 92.8%
- viability at 5 µg/mL (U251 glioblastoma cells): 91.8%
- viability at 50 µg/mL (U251 glioblastoma cells): 93.7%
- melting point: 167 to 168 °C

Compound: O=C1C=CC(O)(CCN2C(=O)COCC2=O)C=C1 [Compound 13g, N-[2-(1-Hydroxy-4-oxocyclohexa-2,5-dien-1-yl)ethyl]morpholine-3,5-dione]
- IC50 [1]: 11.8 µM
- SI (IC50 in L6 cells/IC50 P. falciparum) [1]: 6.6
- viability at 5 µg/mL (CCRF-CEM leukemia cells): 86.9%
- viability at 50 µg/mL (CCRF-CEM leukemia cells): 8.05%
- viability at 5 µg/mL [2]: 96%
- viability at 50 µg/mL [2]: 68.1%
- viability at 5 µg/mL (U251 glioblastoma cells): 94.7%
- viability at 50 µg/mL (U251 glioblastoma cells): 65.6%
- melting point: 142 to 143 °C

Compound: O=C1C=CC(O)(CCN2C(=O)C3=C(CCCC3)C2=O)C=C1 [Compound 13i, N-[2-(1-Hydroxy-4-oxocyclohexa-2,5-dien-1-yl)ethyl]-3,4,5,6-tetrahydrophthalimide]
- IC50 [1]: 1.28 µM
- viability at 5 µg/mL (CCRF-CEM leukemia cells): 2.26%
- viability at 50 µg/mL (CCRF-CEM leukemia cells): 1.23%
- viability at 5 µg/mL [2]: 1.04%
- viability at 50 µg/mL [2]: 0.15%
- viability at 5 µg/mL (U251 glioblastoma cells): 15.9%
- viability at 50 µg/mL (U251 glioblastoma cells): 0%

Compound: O=C1C=CC(O)(CCN2C(=O)C3CC=CCC3C2=O)C=C1 (stereo not shown) [Compound 13j, N-[2-(1-Hydroxy-4-oxocyclohexa-2,5-dien-1-yl)ethyl]-1,2,3,6-tetrahydrophthalimide]
- IC50 [1]: 3.93 µM
- SI (IC50 in L6 cells/IC50 P. falciparum) [1]: 2.0
- viability at 5 µg/mL (CCRF-CEM leukemia cells): 89.9%
- viability at 50 µg/mL (CCRF-CEM leukemia cells): 15.4%
- viability at 5 µg/mL [2]: 98.6%
- viability at 50 µg/mL [2]: 63.3%
- viability at 5 µg/mL (U251 glioblastoma cells): 96.5%
- viability at 50 µg/mL (U251 glioblastoma cells): 76.7%
- melting point: 145 to 146 °C

Compound: O=C1C=CC(O)(CCN2Cc3ccccc3C2)C=C1 [Compound 14a, N-[2-(1-Hydroxy-4-oxocyclohexa-2,5-dien-1-yl)ethyl]isoindoline]
- IC50 [1]: 2.91 µM
- SI (IC50 in L6 cells/IC50 P. falciparum) [1]: 1.0
- viability at 5 µg/mL (CCRF-CEM leukemia cells): 94.6%
- viability at 50 µg/mL (CCRF-CEM leukemia cells): 58%
- viability at 5 µg/mL [2]: 97.3%
- viability at 50 µg/mL [2]: 62.1%
- viability at 5 µg/mL (U251 glioblastoma cells): 99.5%
- viability at 50 µg/mL (U251 glioblastoma cells): 95.5%
- melting point: 103 to 104 °C and 103 °C

Compound: O=C1C=CC(O)(CCN2CCOCC2)C=C1 [Compound 14c, N-[2-(1-Hydroxy-4-oxocyclohexa-2,5-dien-1-yl)ethyl]morpholine]
- IC50 [1]: 10.9 µM
- SI (IC50 in L6 cells/IC50 P. falciparum) [1]: 0.3
- viability at 5 µg/mL (CCRF-CEM leukemia cells): 22.8%
- viability at 50 µg/mL (CCRF-CEM leukemia cells): -0.18%
- viability at 5 µg/mL [2]: 87.7%
- viability at 50 µg/mL [2]: 1.58%
- viability at 5 µg/mL (U251 glioblastoma cells): 68.3%
- viability at 50 µg/mL (U251 glioblastoma cells): 1.11%
- melting point: 98 to 99 °C
